These results are taken from US20210220345A1, “METHODS FOR THE ADMINISTRATION OF COMT INHIBITORS” (Neurocrine Biosciences, Inc., priority 2018, published 2021).

The nature of one series: clinical. Conditions: human, in vivo. On the procedure:
This was a Phase 1, open-label, one-sequence crossover, drug-interaction study to evaluate and compare the PK of repaglinide when administered alone and concomitantly with OPC (micronized). Subjects received a single dose of repaglinide 0.5 mg on Days 1 and 15 at approximately 0800 hours. In addition, subjects received OPC 50 mg once daily on Days 2 through 15 at approximately 0800 hours.
Subjects were required to fast overnight from midnight (2400 hours) until 2 hours postdose on Days 1 through 15. Blood samples for pharmacokinetic analysis of OPC and its metabolites and for repaglinide were collected at scheduled times during the study. Safety and tolerability assessments were conducted at scheduled times during the study.
Blood samples to determine repaglinide plasma concentrations were collected on Days 1 and 15 at approximately 30 minutes prior to repaglinide dosing and at 0.25, 0.5, 0.75, 1, 1.5, 2, 3, 4, 5, 6, 8, 10, 12, and 24 hours post-repaglinide dosing.
PK parameters for OPC and its metabolites and repaglinide were calculated using non-compartmental methods.
A statistical assessment of the drug-drug interaction between repaglinide and opicapone is provided below. A repeated measures linear mixed model with fixed effect for treatment and random effect for subject was utilized. An unstructured variance-covariance matrix was assumed for the mixed model analysis. Geometric means (GM), ratios of geometric means (GMR), and their confidence intervals (CI) are shown on the original scale of measurement. Within-Subject CV was calculated as 100*sqrt[(sA2+sC2−2sAC)/2], where sA2 and sC2 are the estimated variances on the log scale for the two treatments, and sAC is the corresponding estimated covariance.

For series [1] the following is noted: cited from earlier work.
A further series has as its target T1, CYP2C8 (Homo sapiens, UniProt P10632).
T1 sequence (P10632 1-490): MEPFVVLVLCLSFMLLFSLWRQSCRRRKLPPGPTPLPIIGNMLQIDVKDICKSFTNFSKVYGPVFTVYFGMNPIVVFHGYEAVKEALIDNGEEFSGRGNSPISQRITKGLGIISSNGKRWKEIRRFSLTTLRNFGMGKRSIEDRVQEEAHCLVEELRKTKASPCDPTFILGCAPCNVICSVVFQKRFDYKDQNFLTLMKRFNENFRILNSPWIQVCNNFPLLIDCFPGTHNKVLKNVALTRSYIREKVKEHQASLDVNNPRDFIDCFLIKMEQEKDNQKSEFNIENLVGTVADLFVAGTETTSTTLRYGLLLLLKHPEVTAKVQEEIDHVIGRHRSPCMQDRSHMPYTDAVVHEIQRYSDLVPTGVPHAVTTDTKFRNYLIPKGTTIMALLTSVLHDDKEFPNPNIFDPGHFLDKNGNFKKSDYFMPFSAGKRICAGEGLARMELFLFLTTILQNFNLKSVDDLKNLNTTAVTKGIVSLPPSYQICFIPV
Conditions: statement of the European approved drug label; cited from earlier work.

Setting [2] is: non-micronized opicapone 25 mg single dose, repaglinide 0.5 mg.

With `CCOc1cc(CC(=O)N[C@@H](CC(C)C)c2ccccc2N2CCCCC2)ccc1C(=O)O` [Repaglinide, repaglinide], in the series “clinical”, the Tmax came out at 30 min and the half-life was 38.4 min. The compound further gave an AUC(0-inf) in the series “clinical” (AUC0-inf, GM) of 11.6 ng·h/mL. In “clinical” (AUC0-t, GM), this compound showed an AUC(0-t) of 10.9 ng·h/mL. The same compound displayed a Cmax in “clinical” (Cmax, GM) of 10.1 ng/mL.

On to `Cc1c(Cl)c(C)[n+]([O-])c(Cl)c1-c1noc(-c2cc(O)c(O)c([N+](=O)[O-])c2)n1` [opicapone, 5-[3-(2,5-dichloro-4,6-dimethyl-1-oxy-pyridin-3-yl)-[1,2,4]oxadiazol-5-yl]-3-nitrobenzene-1,2-diol], for which, in series [1] (setting [2]), the “increase in repaglinide AUC0-tlast when taken with opicapone vs. repaglinide alone” value is given as 9% and the “increase in repaglinide Cmax when taken with opicapone vs. repaglinide alone” value is 31%. Also, the “average increase in the rate of exposure to repaglinide when co-administered with opicapone” value in series [1] (opicapone 25 mg, less than optimal formulation, rate but not extent of exposure increased) is 30%. Also, the “inhibition of CYP2C8” value on CYP2C8 is on record as “weak inhibitor”.
